This is an account of results in PubChem BioAssay (NCI).

Among the test systems are BT-549 breast; EKVX NSCLC; LOX IMVI melanoma; MCF7 breast; MOLT-4 leukemia; NCI-H460 lung; NCI-H522 lung; RPMI-8226 leukemia; SNB-75 CNS; UO-31 renal.
Common to all, as to experiment: growth of human tumour cells (NCI), 48 h

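48-hour exposure; five concentrations; linearly interpolated endpoints. At the TGI there is no net growth.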

Take `COc1cc(/C=C/C(=O)c2c(=O)o[nH][n+]2-c2ccccc2)ccc1[O-]`: the TGI with BT-549 breast is 7.9 µM; with EKVX NSCLC it was 15.9 µM; in the experiment on LOX IMVI melanoma, 6.75 µM; in the experiment on MCF7 breast, 13.8 µM; in the experiment with MOLT-4 leukemia it was 5.59 µM; in the experiment on NCI-H460 lung, 4.34 µM. The TGI came to 4.29 µM in the experiment on NCI-H522 lung, 5.55 µM in the experiment with RPMI-8226 leukemia, 8.7 µM in the experiment on SNB-75 CNS and 10.1 µM in the experiment with UO-31 renal.

For `COC(=O)[C@H]1[C@@H](C(C)C)O[C@@H](C(C)C)O[C@H]1C(F)(F)F`, the TGI in the experiment on BT-549 breast, with EKVX NSCLC, in the experiment on LOX IMVI melanoma, in the experiment on MCF7 breast, in the experiment with MOLT-4 leukemia and in the experiment on NCI-H460 lung was more than 100 µM throughout. Besides, the TGI in the experiment on NCI-H522 lung, in the experiment on RPMI-8226 leukemia, in the experiment on SNB-75 CNS and with UO-31 renal was more than 100 µM throughout.

In the case of `O=C1CCC2(CCO1)OCCO2`, the TGI with BT-549 breast, in the experiment on EKVX NSCLC, in the experiment with LOX IMVI melanoma, in the experiment on MCF7 breast, with MOLT-4 leukemia and in the experiment with NCI-H460 lung was more than 100 µM in each case. For the same molecule, the TGI with NCI-H522 lung, in the experiment on SNB-75 CNS and in the experiment with UO-31 renal was more than 100 µM in each case.

With `Cc1ccc(C2=NOC(=O)[C@@H]3CCCC[C@@H]23)cc1`, the TGI in the experiment with BT-549 breast, with EKVX NSCLC, in the experiment on LOX IMVI melanoma, in the experiment with MCF7 breast, in the experiment on MOLT-4 leukemia and in the experiment on NCI-H522 lung was more than 100 µM each time. In addition, the TGI in the experiment with RPMI-8226 leukemia, in the experiment with SNB-75 CNS and with UO-31 renal was more than 100 µM throughout.

`CCOP(=O)(OCC)C(Nc1cccc(F)c1)c1ccccc1` (stereo unspecified): the TGI in the experiment on BT-549 breast, in the experiment with EKVX NSCLC, with LOX IMVI melanoma, with MCF7 breast, in the experiment on MOLT-4 leukemia and in the experiment on NCI-H460 lung was more than 100 µM throughout. Moreover, the TGI in the experiment with NCI-H522 lung, in the experiment on RPMI-8226 leukemia, with SNB-75 CNS and in the experiment with UO-31 renal was more than 100 µM in each case.

For the molecule `Cc1ccc(C(=O)O)c(CC2Cc3c(C)cccc3C2=O)c1` (stereo unspecified), the TGI with BT-549 breast, with EKVX NSCLC, in the experiment on LOX IMVI melanoma, with MCF7 breast, in the experiment on MOLT-4 leukemia and in the experiment with NCI-H460 lung was more than 100 µM each time. The TGI with NCI-H522 lung, in the experiment with RPMI-8226 leukemia, with SNB-75 CNS and in the experiment on UO-31 renal was more than 100 µM each time.

As to `COc1ccc2c(c1)C(N)=C(c1ccccc1)C2=O`, the TGI in the experiment on BT-549 breast, with EKVX NSCLC, with LOX IMVI melanoma, with MCF7 breast, with MOLT-4 leukemia and in the experiment on NCI-H460 lung was more than 100 µM each time. Further, the figures for the TGI in the experiment on NCI-H522 lung, in the experiment with RPMI-8226 leukemia and with SNB-75 CNS were more than 100 µM, more than 100 µM and 70 µM, respectively.

Regarding `NC(=S)N/N=C\c1ccc(OCc2cccc(COc3ccc(/C=N/NC(N)=S)cc3)n2)cc1`, the TGI in the experiment on BT-549 breast is 12.2 µM; with EKVX NSCLC, more than 100 µM; in the experiment with LOX IMVI melanoma, more than 100 µM; in the experiment with MCF7 breast, more than 100 µM; in the experiment on MOLT-4 leukemia it was more than 100 µM; in the experiment with NCI-H460 lung it was more than 100 µM. Further, the TGI in the experiment with NCI-H522 lung, in the experiment on RPMI-8226 leukemia, in the experiment on SNB-75 CNS and in the experiment with UO-31 renal was more than 100 µM throughout.

Turning to `CCNc1ccc2c(c1)Cc1ccccc1-2`, the TGI with BT-549 breast is 75.5 µM; in the experiment on EKVX NSCLC it was more than 100 µM; in the experiment with LOX IMVI melanoma, more than 100 µM; in the experiment on MCF7 breast, more than 100 µM; with MOLT-4 leukemia, more than 100 µM; in the experiment on NCI-H460 lung, more than 100 µM. The TGI in the experiment with NCI-H522 lung, in the experiment on RPMI-8226 leukemia, in the experiment with SNB-75 CNS and with UO-31 renal was more than 100 µM throughout.

In the case of `CC(C)=CCC[C@@H](C)C1=C(Nc2ccccc2Cl)C(O)=C(C)C(=O)C1=O`, the TGI with BT-549 breast was 36.3 µM; in the experiment on EKVX NSCLC it was 29.7 µM; in the experiment on LOX IMVI melanoma, 98.4 µM; in the experiment with MCF7 breast, more than 100 µM; in the experiment with MOLT-4 leukemia it was 25.1 µM; in the experiment with NCI-H460 lung it was more than 100 µM. Moreover, the TGI in the experiment with NCI-H522 lung was 12.2 µM; with RPMI-8226 leukemia, more than 28.7 µM; in the experiment with SNB-75 CNS, 22.3 µM; in the experiment with UO-31 renal, 17.9 µM.

Regarding `Nc1nc(-c2ccccc2N=NN2CCCC2)nc2ccccc12`, the TGI in the experiment with BT-549 breast worked out at 24.1 µM; in the experiment with EKVX NSCLC, 23.8 µM; with LOX IMVI melanoma it was 3.77 µM; with MCF7 breast, 55.9 µM; in the experiment with MOLT-4 leukemia, 3.52 µM; in the experiment on NCI-H460 lung it was 17.9 µM. Moreover, the TGI in the experiment with NCI-H522 lung is 16.5 µM; with RPMI-8226 leukemia, 6.46 µM; in the experiment on SNB-75 CNS, 23.8 µM; with UO-31 renal, 3.43 µM.

For `N#CC(C#N)=C1C(C#N)=C(N)NC12OCCO2`, the TGI in the experiment with BT-549 breast, in the experiment with EKVX NSCLC, with LOX IMVI melanoma, in the experiment on MCF7 breast, in the experiment on MOLT-4 leukemia and with NCI-H460 lung was more than 100 µM in each case. Also, the TGI in the experiment with NCI-H522 lung, in the experiment on RPMI-8226 leukemia and in the experiment with UO-31 renal was more than 100 µM in each case.

For the molecule `Cc1cc(C)c(P2C(=C(O[Si](C(C)C)(C(C)C)C(C)C)C(C)(C)C)C2(c2ccccc2)c2ccccc2)c(C)c1` (stereo unspecified), the TGI with BT-549 breast, in the experiment on EKVX NSCLC, in the experiment with LOX IMVI melanoma, in the experiment with MCF7 breast, in the experiment on MOLT-4 leukemia and in the experiment on NCI-H460 lung was more than 100 µM each time. In addition, the TGI in the experiment on NCI-H522 lung, in the experiment on RPMI-8226 leukemia, with SNB-75 CNS and in the experiment on UO-31 renal was more than 100 µM in each case.

For `CC[N+](C)(CC)CCC(O)(c1ccccc1)c1ccccc1`, the TGI in the experiment on BT-549 breast, with EKVX NSCLC, in the experiment with LOX IMVI melanoma, with MCF7 breast, in the experiment on MOLT-4 leukemia and with NCI-H460 lung was more than 100 µM in each case. Further, the TGI with NCI-H522 lung, with RPMI-8226 leukemia, with SNB-75 CNS and with UO-31 renal was more than 100 µM each time.
